Reference: ChEMBL document CHEMBL1201862, “PubChem BioAssay data set” (2004)
Structures can show the parent of a compound that is named as a salt. Activity calls are given as the source filed them.

Assays:
Cytochrome P450 2C19 = Cytochrome P450 2C19 (Homo sapiens, UniProt P33261); experiment: Cytochrome panel assay with activity outcomes. Panel member name: p450-cyp2c19 Compounds with AC50 equal or less than 10 uM are considered active; format: functional
[1] = Luminescence Cell-Based Dose Confirmation HTS to Identify Activators of 5'UTR Stem-Loop Driven Alpha-Synuclein mRNA Translation in H4 Neuroglioblastoma Cells. [Related pubchem assays: 1829 (Project Summary), 1814 (Primary HTS)]; format: functional
[2] = Luminescence Cell-Based Dose Response HTS to Identify Activators of Luciferase Translation or Activity in H4 […] Cells. [Related pubchem assays: 1829 (Project Summary), 1814 (Primary HTS)]; format: functional
H4 = experiment: Luminescence Cell-Based Dose Response HTS to Identify Activators of 5'UTR Stem-Loop Driven Prion Protein mRNA Translation in H4 Neuroglioblastoma Cells. [Related pubchem assays: 1829 (Project Summary), 1814 (Primary HTS)]; format: functional; details: Homo sapiens
Genome polyprotein = Genome polyprotein (dengue virus type 2, UniProt P29990); experiment: flavivirus cap methylation enzyme inhibition – biochemical, confirmation dose response, primary screen (AID 588689); format: functional
Sequence of Genome polyprotein (P29990 2492-3391 limits assumed): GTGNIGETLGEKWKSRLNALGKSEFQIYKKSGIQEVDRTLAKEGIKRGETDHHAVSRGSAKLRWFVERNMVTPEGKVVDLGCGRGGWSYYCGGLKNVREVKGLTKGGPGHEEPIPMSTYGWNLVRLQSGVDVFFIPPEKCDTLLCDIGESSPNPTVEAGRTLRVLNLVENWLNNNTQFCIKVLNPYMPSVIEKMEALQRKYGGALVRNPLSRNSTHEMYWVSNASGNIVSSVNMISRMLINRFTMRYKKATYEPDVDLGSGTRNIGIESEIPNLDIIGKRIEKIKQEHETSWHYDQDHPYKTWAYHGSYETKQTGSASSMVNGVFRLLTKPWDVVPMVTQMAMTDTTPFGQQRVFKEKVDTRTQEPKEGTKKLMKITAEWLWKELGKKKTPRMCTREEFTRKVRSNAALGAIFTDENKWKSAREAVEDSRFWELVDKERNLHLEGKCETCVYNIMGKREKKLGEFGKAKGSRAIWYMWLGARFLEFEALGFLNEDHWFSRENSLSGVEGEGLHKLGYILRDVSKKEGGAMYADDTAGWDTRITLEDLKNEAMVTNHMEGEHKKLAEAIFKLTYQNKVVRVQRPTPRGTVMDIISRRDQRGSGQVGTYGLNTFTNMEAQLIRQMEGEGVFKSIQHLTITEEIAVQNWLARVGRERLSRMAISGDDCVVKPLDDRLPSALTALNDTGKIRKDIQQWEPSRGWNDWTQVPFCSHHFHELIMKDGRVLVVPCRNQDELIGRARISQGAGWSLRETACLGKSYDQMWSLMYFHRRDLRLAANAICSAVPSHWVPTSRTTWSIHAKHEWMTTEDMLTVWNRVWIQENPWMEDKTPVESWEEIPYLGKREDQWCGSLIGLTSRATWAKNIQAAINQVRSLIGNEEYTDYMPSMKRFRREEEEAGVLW

[3] = microbe, parasite or virus in culture; format: functional; details: Mycobacterium tuberculosis
Cytochrome P450 3A4 [4] = target: T1, Cytochrome P450 3A4 (Homo sapiens, UniProt P08684); details: Potency
T1 sequence (P08684 whole entry): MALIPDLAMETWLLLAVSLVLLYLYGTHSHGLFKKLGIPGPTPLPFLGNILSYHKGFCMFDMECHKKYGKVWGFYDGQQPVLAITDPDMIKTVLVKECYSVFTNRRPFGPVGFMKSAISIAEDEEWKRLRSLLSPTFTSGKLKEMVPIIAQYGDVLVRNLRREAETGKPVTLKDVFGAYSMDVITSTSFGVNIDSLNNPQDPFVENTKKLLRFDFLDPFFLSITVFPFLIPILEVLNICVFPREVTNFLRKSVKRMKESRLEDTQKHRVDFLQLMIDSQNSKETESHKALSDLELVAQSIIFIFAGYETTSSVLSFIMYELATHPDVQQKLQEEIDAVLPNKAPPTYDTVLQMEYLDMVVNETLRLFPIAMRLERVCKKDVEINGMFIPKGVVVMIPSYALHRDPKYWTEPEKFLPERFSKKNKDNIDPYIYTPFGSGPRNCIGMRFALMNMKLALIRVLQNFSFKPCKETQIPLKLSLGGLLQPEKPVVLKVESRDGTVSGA

Cytochrome P450 2C9 = Cytochrome P450 2C9 (Homo sapiens, UniProt P11712)
Sequence of Cytochrome P450 2C9 (P11712 whole entry): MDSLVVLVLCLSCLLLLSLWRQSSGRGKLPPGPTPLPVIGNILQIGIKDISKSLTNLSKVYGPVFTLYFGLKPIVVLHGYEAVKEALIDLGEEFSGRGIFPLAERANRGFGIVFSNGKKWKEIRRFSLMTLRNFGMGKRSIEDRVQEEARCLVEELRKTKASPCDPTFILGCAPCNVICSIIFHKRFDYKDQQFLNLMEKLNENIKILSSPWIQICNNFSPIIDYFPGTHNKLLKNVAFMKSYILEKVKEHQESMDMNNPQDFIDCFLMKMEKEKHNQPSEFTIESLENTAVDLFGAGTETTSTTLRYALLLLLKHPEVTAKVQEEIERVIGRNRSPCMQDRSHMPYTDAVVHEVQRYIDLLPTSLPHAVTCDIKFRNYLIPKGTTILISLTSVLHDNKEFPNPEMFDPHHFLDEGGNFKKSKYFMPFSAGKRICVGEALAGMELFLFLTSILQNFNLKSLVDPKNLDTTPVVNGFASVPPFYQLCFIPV

Cytochrome P450 2D6 = Cytochrome P450 2D6 (Homo sapiens, UniProt P10635);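 also: CYP2D6 member of a cytochrome P450 panel assay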
Sequence of Cytochrome P450 2D6 (P10635 whole entry): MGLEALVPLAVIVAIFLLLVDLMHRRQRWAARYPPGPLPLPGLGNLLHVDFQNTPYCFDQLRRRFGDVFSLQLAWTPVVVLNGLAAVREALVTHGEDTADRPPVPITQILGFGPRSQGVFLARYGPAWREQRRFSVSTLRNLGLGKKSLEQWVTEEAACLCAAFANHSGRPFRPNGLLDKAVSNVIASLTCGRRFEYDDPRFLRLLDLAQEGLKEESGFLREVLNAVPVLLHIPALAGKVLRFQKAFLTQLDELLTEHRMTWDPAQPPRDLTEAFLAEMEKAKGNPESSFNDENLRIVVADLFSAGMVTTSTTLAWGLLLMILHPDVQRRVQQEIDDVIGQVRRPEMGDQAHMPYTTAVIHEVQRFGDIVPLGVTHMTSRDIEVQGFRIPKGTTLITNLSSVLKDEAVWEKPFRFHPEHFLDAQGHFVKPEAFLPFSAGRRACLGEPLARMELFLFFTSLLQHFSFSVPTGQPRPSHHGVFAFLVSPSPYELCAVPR

[5] = target: T2, DNA repair and recombination protein RAD54-like (Homo sapiens, UniProt Q92698); experiment: RAD54 Holliday junction migration blockers – biochemical, fluorescence, cherry-picked samples, dose series, confirmation (AID 651657); format: functional
T2 sequence (Q92698 whole entry): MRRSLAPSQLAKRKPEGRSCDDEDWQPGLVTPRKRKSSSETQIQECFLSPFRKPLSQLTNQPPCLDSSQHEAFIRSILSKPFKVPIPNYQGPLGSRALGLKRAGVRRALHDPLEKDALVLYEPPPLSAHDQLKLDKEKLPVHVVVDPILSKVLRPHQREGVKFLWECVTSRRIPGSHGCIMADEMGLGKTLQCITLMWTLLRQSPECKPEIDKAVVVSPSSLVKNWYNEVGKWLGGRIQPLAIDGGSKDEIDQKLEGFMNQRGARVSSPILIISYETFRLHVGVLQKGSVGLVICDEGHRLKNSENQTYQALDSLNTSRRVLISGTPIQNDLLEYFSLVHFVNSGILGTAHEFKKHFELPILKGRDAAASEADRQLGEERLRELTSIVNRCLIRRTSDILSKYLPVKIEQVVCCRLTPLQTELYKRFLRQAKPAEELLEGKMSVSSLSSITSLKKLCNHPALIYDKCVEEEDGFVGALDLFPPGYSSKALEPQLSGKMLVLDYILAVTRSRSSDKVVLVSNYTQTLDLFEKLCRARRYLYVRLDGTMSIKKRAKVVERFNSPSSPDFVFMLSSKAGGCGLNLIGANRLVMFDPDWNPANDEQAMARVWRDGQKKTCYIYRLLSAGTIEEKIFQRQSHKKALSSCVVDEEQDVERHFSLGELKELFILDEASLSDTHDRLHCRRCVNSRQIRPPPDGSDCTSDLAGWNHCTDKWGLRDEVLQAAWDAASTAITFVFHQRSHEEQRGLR

Cytochrome P450 3A4 [6] = target: T1, Cytochrome P450 3A4
[7] = target: T3, DNA repair protein RAD52 homolog (Homo sapiens, UniProt P43351); format: functional, biochemical
T3 sequence (P43351 whole entry): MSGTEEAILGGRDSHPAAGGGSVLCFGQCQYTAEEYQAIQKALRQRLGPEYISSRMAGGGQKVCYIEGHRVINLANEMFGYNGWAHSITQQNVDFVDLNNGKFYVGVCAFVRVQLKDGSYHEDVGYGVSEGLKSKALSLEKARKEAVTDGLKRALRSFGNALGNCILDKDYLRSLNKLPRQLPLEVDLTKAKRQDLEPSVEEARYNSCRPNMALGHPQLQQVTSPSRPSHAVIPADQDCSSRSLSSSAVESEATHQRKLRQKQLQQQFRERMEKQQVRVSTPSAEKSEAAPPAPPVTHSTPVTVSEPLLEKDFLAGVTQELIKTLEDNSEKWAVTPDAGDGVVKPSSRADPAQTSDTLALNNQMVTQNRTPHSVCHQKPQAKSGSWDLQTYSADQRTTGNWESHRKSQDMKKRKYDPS

[8] = target: T4, Ubiquitin-conjugating enzyme E2 N (Homo sapiens, UniProt P61088); format: functional;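 also: Dose-response confirmation in a TR-FRET assay detecting UBC13-driven polyubiquitin chain formation, inhibition measured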
T4 sequence (P61088 whole entry): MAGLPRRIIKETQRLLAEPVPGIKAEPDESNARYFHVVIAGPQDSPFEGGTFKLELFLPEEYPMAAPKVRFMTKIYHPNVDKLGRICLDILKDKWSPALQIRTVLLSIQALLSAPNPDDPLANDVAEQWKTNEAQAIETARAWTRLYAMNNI

cells = format: functional
BJ [9] = experiment: BJ-TERT fibroblast viability loss – cell-based, RAS-independent, luminescence, dose response (AID 1933); format: functional; details: Homo sapiens
[10] = Luminescence Cell-Based Dose Confirmation HTS to Identify Inhibitors of Platelet Dense Granule Release. [Related pubchem assays: 1663 (Primary HTS), 1678 (Summary of Project)]; format: functional
[11] = DRD fibroblast viability loss – cell-based, non-viral oncogenic, luminescence, dose response (AID 1934); format: functional; details: Homo sapiens
BJ [12] = experiment: BJ-TERT-LT-ST fibroblast viability loss – cell-based, RAS-independent, luminescence, dose response (AID 1935); format: functional; details: Homo sapiens;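 also: BJ fibroblasts immortalized with TERT plus LT and ST oncogenes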
BJ [13] = experiment: cells; format: functional, cell-based; details: Homo sapiens
[14] = target: Luciferin 4-monooxygenase (Photinus pyralis, UniProt P08659); experiment: inhibition of purified Photinus pyralis luciferase – biochemical, luminescence, dose response (AID 1891)
Sequence of Luciferin 4-monooxygenase (P08659 whole entry): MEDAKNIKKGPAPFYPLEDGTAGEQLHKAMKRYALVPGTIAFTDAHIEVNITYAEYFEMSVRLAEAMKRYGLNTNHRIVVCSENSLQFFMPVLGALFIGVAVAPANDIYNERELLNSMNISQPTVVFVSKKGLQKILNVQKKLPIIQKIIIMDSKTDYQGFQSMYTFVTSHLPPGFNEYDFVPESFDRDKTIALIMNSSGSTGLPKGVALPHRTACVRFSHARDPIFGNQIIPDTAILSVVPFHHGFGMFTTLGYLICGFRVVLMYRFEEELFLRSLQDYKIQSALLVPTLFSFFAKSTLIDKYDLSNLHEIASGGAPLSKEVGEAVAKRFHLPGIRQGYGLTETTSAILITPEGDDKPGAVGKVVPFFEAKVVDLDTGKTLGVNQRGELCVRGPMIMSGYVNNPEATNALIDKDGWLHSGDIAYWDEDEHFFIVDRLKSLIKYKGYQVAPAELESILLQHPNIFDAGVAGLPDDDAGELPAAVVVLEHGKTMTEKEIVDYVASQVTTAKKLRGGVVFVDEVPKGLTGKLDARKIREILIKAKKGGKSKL

Vero = experiment: cells; format: functional; details: Chlorocebus sabaeus
[15] = target: Glyceraldehyde-3-phosphate dehydrogenase (Homo sapiens, UniProt P04406)
Sequence of Glyceraldehyde-3-phosphate dehydrogenase (P04406 whole entry): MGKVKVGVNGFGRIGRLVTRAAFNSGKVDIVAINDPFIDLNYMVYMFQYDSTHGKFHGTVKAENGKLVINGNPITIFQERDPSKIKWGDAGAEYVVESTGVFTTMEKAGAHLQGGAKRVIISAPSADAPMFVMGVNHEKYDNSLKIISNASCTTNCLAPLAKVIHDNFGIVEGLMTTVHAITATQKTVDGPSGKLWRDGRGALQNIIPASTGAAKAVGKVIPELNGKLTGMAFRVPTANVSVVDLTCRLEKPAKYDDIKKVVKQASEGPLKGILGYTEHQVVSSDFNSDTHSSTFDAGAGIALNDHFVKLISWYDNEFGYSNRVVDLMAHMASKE

[16] = Trypanosoma cruzi growth suppression in host cells – NIH3T3 host cells, beta-gal luminescence, confirmation (AID 2044); format: functional, cell-based;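 also: intracellular parasites grown in NIH/3T3 mouse fibroblasts as host cells; luminescent beta-galactosidase reporter signal from transgenic T. cruzi replicating inside host cells; inhibitors lower the luminescence signal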
[17] = viability of HCT116 lacking mutant beta-catenin – cell-based, human colon tumor, dose response (AID 1045); format: functional;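 also: HCT116 colon tumor cells with beta catenin knocked out; cells exposed to compound for 60 hours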
[18] = viability of PTEN-deleted HCT116 cells – cell-based, HCT116 PTEN knockout, dose response (AID 1047); format: functional;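 also: HCT116 colon tumor cells with PTEN knocked out; cells exposed to compound for 60 hours before readout; potency for loss of cell viability measured by luminescence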
[19] = NIH3T3 cell viability loss – ATP luminescence, mouse fibroblasts, counter-screen, dose response (AID 2010); format: functional, cell-based;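 also: cells exposed to compound for about 90 hours before reading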
[20] = target: FAD-linked sulfhydryl oxidase ALR (Homo sapiens, UniProt P55789); experiment: ALR-catalysed DTT oxidation blockers – biochemical, H2O2 detection, luminescence, cherry-pick, dose response (AID 493248)
Sequence of FAD-linked sulfhydryl oxidase ALR (P55789 whole entry): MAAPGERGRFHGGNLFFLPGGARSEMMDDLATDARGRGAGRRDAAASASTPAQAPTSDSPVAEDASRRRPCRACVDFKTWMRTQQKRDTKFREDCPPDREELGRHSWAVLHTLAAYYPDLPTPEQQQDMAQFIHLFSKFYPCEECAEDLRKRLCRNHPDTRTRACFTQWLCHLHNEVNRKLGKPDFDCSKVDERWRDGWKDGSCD

Sequence of Cytochrome P450 2C19 (P33261 whole entry): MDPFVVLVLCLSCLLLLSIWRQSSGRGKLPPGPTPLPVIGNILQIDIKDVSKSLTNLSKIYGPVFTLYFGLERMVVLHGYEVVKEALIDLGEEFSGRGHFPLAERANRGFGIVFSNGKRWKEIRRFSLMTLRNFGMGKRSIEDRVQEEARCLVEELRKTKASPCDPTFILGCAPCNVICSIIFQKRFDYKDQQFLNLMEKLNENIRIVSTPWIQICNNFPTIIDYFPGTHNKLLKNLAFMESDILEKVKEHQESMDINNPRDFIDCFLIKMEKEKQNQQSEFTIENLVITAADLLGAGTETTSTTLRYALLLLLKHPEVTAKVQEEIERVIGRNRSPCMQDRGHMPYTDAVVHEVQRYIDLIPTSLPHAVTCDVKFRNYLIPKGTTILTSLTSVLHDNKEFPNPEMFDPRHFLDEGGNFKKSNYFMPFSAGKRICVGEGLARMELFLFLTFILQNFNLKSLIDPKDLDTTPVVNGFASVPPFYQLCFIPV

Structure (SMILES): CN(C)c1ccc(-c2cc(NCc3cccnc3)ncn2)cc1
- AC50 (Cytochrome P450 2C19): 39.8 µM (inconclusive)

Structure (SMILES): COn1c(-c2ccc(Cl)cc2)nc2ncccc21
- EC50 [1]: 0.106 µM (active)
- EC50 [2]: 35.5 µM (active)
- EC50 (H4): 51.9 µM (active)

Structure (SMILES): CC1=NOC(=O)/C1=C/c1ccc2c(c1)OCO2
- IC50 (Genome polyprotein): 11.6 µM (active)

Structure (SMILES): Cc1cccc2c1-c1sc(C(=O)Nc3ccccc3N3CCN(C)CC3)cc1CO2
- CC50 [3]: 18.8 µM (active)

Structure (SMILES): Cc1cccc(N2CCN(C(=O)CNC(=O)c3ccccc3)CC2)c1C
- EC50 [1]: 19.2 µM (active)
- EC50 [2]: 11.3 µM (active)
- EC50 (H4): > 60 µM (not active)

Structure (SMILES): CCCCC(CC)COC(=O)CCCCC(=O)OCC(CC)CCCC (stereo unspecified)
- AC50 (Cytochrome P450 3A4 [4]): 20 µM (inconclusive)

Structure (SMILES): COc1ccc(Oc2ncc3nc(C)c(=O)n(Cc4cccs4)c3n2)cc1
- AC50 (Cytochrome P450 2C9): 39.8 µM (inconclusive)
- AC50 (Cytochrome P450 2D6): 25.1 µM (inconclusive)
- AC50 (Cytochrome P450 2C19): 39.8 µM (inconclusive)

Structure (SMILES): COc1cc(/C=C2\SC(=S)N(C(C(=O)O)c3ccccc3)C2=O)cc(OC)c1OC (stereo unspecified)
- IC50 (Genome polyprotein): > 100 µM (active)

Structure (SMILES): CNC(C)C#Cc1ccc2oc3cccc(OC)c3c(=O)c2c1 (stereo unspecified)
- AC50 [5]: 24.3 µM (active)

Structure (SMILES): Cc1cc2cc(C=O)c(Cl)nc2cc1C
- AC50 (Cytochrome P450 3A4 [6]): 10 µM (inconclusive)
- AC50 (Cytochrome P450 2D6): 7.08 µM (inconclusive)
- AC50 (Cytochrome P450 2C19): 0.0708 µM (inconclusive)

Structure (SMILES): CSc1nc2sc3c(c2c(=O)n1C)CCC(C)C3 (stereo unspecified)
- EC50 [1]: 5.51 µM (active)
- EC50 [2]: 19.9 µM (active)
- EC50 (H4): 15.3 µM (active)

Structure (SMILES): CCOC(=O)c1c(NC(=O)C(NCCN(C)C)c2ccccc2)sc2c1CCCC2 (stereo unspecified)
- CC50 [3]: 13.2 µM (active)
- AC50 [7]: 10 µM (active)
- IC50 [8]: > 20 µM (inactive)

Structure (SMILES): CC1CCC(NC(=O)Cn2cc3c(n2)CCCC3)CC1 (stereo unspecified)
- EC50 [1]: 0.278 µM (active)
- EC50 [2]: 3.02 µM (active)
- EC50 (H4): 4.09 µM (active)

Structure (SMILES): COC(c1ccccc1Br)C(C)/C=C/CCO (stereo unspecified)
- AC50 (Cytochrome P450 3A4 [4]): 3.16 µM (inconclusive)

Structure (SMILES): CC(C)OC(=O)c1sc2nc3c(cc2c1N)C(=O)CCC3
- EC50 [1]: 41.9 µM (active)
- EC50 [2]: 73.1 µM (active)
- EC50 (H4): 41.6 µM (active)

Structure (SMILES): O=C(NCCc1c[nH]c2ccccc12)c1cc2ccccc2oc1=O
- EC50 [1]: 0.481 µM (active)
- EC50 [2]: 119 µM (active)
- IC50 (cells): 0.34 µM (active)
- EC50 (H4): 11 µM (active)

Structure (SMILES): O=C(CCl)NCCCCCCCCCNC(=O)CCl
- EC50 (BJ [9]): 18.8 µM (active)
- EC50 [10]: > 112 µM (not active)
- CC50 [3]: 19 µM (active)
- EC50 [11]: > 150 µM (not active)
- EC50 (BJ [12]): > 150 µM (not active)
- EC50 (BJ [13]): > 150 µM (not active)
- EC50 [14]: > 112 µM (not active)

Structure (SMILES): CC(SCc1cn2cc(Cl)ccc2n1)C(=O)O (stereo unspecified)
- AC50 (Cytochrome P450 2C19): 28.2 µM (inconclusive)

Structure (SMILES): COc1ccc(C(=O)/C=C/c2ccccc2F)c(OC(=O)c2ccc([N+](=O)[O-])cc2)c1
- CC50 (Vero): 20.9 µM (active)

Structure (SMILES): CCOC(=O)c1cnc2c(Cl)cccc2c1NCCCN1CCOCC1
- AC50 [5]: 32.7 µM (active)

Structure (SMILES): Cc1cccc(N2C(=O)C(Cl)=C(N3CCN(C/C=C/c4ccccc4)CC3)C2=O)c1
- IC50 [15]: > 50 µM (inconclusive)

Structure (SMILES): Cn1nc(-c2ccc(N3CCCCC3)c(NC(=O)c3ccco3)c2)c2ccccc2c1=O
- CC50 [3]: 26.3 µM (active)
- EC50 [16]: 1.23 µM (active)
- EC50 [17]: 9.07 µM (active)
- EC50 [18]: 7.35 µM (active)
- EC50 [19]: > 60 µM (not active)

Structure (SMILES): Cc1cc(NCCCN(C)C)n2c(nc3ccccc32)c1C#N
- AC50 [5]: 18.7 µM (active)

Structure (SMILES): C#CCOc1c(/C=C\c2nc(O)c([N+](=O)[O-])c(O)n2)cc(Br)cc1OC
- IC50 (Genome polyprotein): 74.5 µM (active)

Structure (SMILES): OCCN1CCN(c2nc(-c3ccccc3O)nc3ccccc23)CC1
- AC50 [5]: 7.01 µM (active)

Structure (SMILES): O=C1OCC(c2ccccc2)=C1c1ccc(S(=O)(=O)N2CCOCC2)s1
- AC50 (Cytochrome P450 3A4 [6]): 28.2 µM (inconclusive)
- AC50 (Cytochrome P450 2D6): 31.6 µM (inconclusive)
- AC50 (Cytochrome P450 2C19): 22.4 µM (inconclusive)

Structure (SMILES): CCCOc1ccc(CSC(CC(=O)O)C(=O)O)cc1 (stereo unspecified)
- AC50 (Cytochrome P450 2C19): 0.224 µM (inconclusive)

Structure (SMILES): O=C(NNc1ccc([N+](=O)[O-])cn1)Nc1ccc(N=Nc2ccccc2)cc1
- CC50 (Vero): 19.4 µM (active)

Structure (SMILES): COC(C)(C)CCCC(C)C/C=C/C(C)=C/C(=O)OC(C)C (stereo unspecified)
- AC50 (Cytochrome P450 3A4 [4]): 31.6 µM (inconclusive)

Structure (SMILES): O=c1cc(-c2ccc(O)cc2)oc2cc(O)ccc12
- AC50 (Cytochrome P450 3A4 [4]): 7.94 µM (inconclusive)

Structure (SMILES): Cc1occc1C(=O)N/N=C/c1cccc2ccccc12
- EC50 [1]: 0.129 µM (active)
- EC50 [2]: 0.19 µM (active)
- EC50 (H4): 52.9 µM (active)

Structure (SMILES): COc1cc(/C=N/NC(=O)c2cccc([N+](=O)[O-])c2)ccc1OCc1ccc(C)cc1
- AC50 (Cytochrome P450 2C9): 1.58 µM (inconclusive)
- AC50 (Cytochrome P450 2C19): 2.51 µM (inconclusive)

Structure (SMILES): Nc1ccc(Oc2ccc(N)cc2)cc1
- AC50 (Cytochrome P450 3A4 [4]): 31.6 µM (inconclusive)

Structure (SMILES): CN1CCCCC1c1ccc(-c2cccnc2)nc1 (stereo unspecified) [ANABASAMINE HYDROCHLORIDE]
- AC50 (Cytochrome P450 3A4 [4]): 12.6 µM (inconclusive)

Structure (SMILES): COc1cc(C)c(C(=O)Oc2cc(C)c(C(=O)O)c(O)c2C)c(OC)c1C [DIFFRACTAIC ACID]
- AC50 (Cytochrome P450 3A4 [4]): 25.1 µM (inconclusive)
- AC50 [20]: 0.784 µM (active)

Structure (SMILES): CS(C)(=O)=O [DIMETHYL SULFONE]
- AC50 (Cytochrome P450 3A4 [4]): 20 µM (inconclusive)
